Measurements as given in patent publication US20250177529A1, “ACOUSTIC ENRICHMENT OF ADOPTIVE CELL TRANSFERS” (THE REGENTS OF THE UNIVERSITY OF COLORADO, A BODY CORPORATE, priority 2022, published 2025).

B1: IFNγ: inflammatory cytokine, equivalent free dose (protein, UniProt P01580 23-155, looked up)
Interferon gamma: HGTVIESLESLNNYFNSSGIDVEEKSLFLDIWRNWQKDGDMKILQSQIISFYLRLFEVLKDNQAISNNISVIESHLITTFFSNSKAKKDAFMSIAKFEVNNPQVQRQAFNELIRVVHQLLPESSLRKRKRSRC

Legend:
[1] = in vivo; cited from earlier work
primary macrophages = assay: Primary macrophage polarization by IFNγ-containing particles; format: cell-based; settings: compared to controls
Description: FIG. 7 presents exemplary data showing primary macrophage polarization in various conditions.
FIG. 7A: Normoxia (i.e., standard cell culture conditions) without interferon gamma (IFNγ).
FIG. 7B: Normoxia with IFNγ.
FIG. 7C: Tumor-promoting conditions (i.e., in hypoxia (1% 02) and 10 vol. % tumor (4T1)-conditioned media) and bound to IFNγ-containing particles after 24 hrs.
As discussed above, discoidal elastomeric particles can encapsulate inflammatory cytokines (i.e., IFNγ) and polarize the cells to which they are bound. […] Macrophages maintained their polarization for 5 days, even when challenged by hypoxia (1% O2) and tumor-conditioned media (i.e., 10 vol. % tumor (4T1)-conditioned media).

Row | Molecule | maximum tolerated dose (MTD) [1] [mg/kg] | iNOS expression, fold higher (primary macrophages) [fold]
1 | CC(C)(CNC(=O)c1cccc(-c2noc(C(F)(F)F)n2)c1)c1coc(-c2ccccc2)n1 [TMP195] | 50 | –
2 | CCOCc1nc2c(N)nc3ccccc3c2n1CC(C)(C)O [resiquimod] | 5 | –
3 | B1 | – | 1.3
